Test results published in ChEMBL document CHEMBL5233262, “Anti-inflammatory activity of naturally occuring diarylheptanoids - A review” (Bioorg Med Chem, 2021).
≈ marks a conversion by molar mass, not a printed value.

How the values were obtained:
[1] = Antioxidant activity assessed as […] radical scavenging activity at 50 uM; assay type: functional
Rattus norvegicus = test: Antiinflammatory activity in rat model of carrageenan-induced paw edema assessed as reduction in paw thickness at 10 mg/kg,ip and measured after 4 hrs; assay type: functional; set-up: scale not given: the % may be the effect or the level left
Zingiber officinale = test: Inhibition of prostaglandin biosynthesis in ginger; assay type: functional, organism-based
RAW264.7 [2] = test: Antiinflammatory activity in mouse RAW264.7 cells assessed as inhibition of LPS-induced NO production incubated for 18 hrs by Griess method; assay type: functional, cell-based; settings: RAW264.7, 18 h
RAW264.7 [3] = test: Antiinflammatory activity in mouse RAW264.7 cells assessed as inhibition of LPS-induced NO production preincubated for 0.5 hrs followed by LPS stimulation and measured after 24 hrs by Griess reagent based analysis; assay type: functional, cell-based
J774.1 = test: Antiinflammatory activity in mouse J774.1 cells assessed as inhibition of LPS-induced NO production incubated for 48 hrs by Griess reagent based analysis; assay type: functional, cell-based; settings: Mus musculus, J774.1, 48 h
[4] = Antioxidant activity assessed as ABTS radical scavenging activity measured after 6 mins; assay type: functional
RAW264.7 [5] = test: Antiinflammatory activity in mouse RAW264.7 cells assessed as inhibition of LPS-induced NO production preincubated for 1 hrs followed by LPS stimulation and measured after 24 hrs by Griess reagent based spectrophotometrical method; assay type: functional, cell-based
RAW264.7 [6] = test: Antiinflammatory activity in mouse RAW264.7 cells assessed as inhibition of LPS-induced NO production at 30 uM preincubated for 0.5 hrs followed by LPS stimulation and measured after 24 hrs by Griess reagent based analysis; assay type: functional; settings: time 24.5 hrs
RAW264.7 [7] = test: Antiinflammatory activity in mouse RAW264.7 cells assessed as inhibition of LPS-induced NO production preincubated for 1 hrs followed by LPS stimulation and measured after 24 hrs by Griess method; assay type: functional, cell-based
[8] = Antiinflammatory activity in mouse N11 cells assessed as inhibition of LPS-induced NO production preincubated for 1 hrs followed by LPS stimulation and measured after 24 hrs by Griess method; assay type: functional, cell-based
RAW264.7 [9] = test: Antiinflammatory activity in mouse RAW264.7 cells assessed as inhibition of LPS-induced TNFalpha level preincubated for 1 hrs followed by LPS stimulation and measured after 24 hrs by ELISA; assay type: functional, cell-based
[10] = Antiinflammatory activity in mouse N11 cells assessed as inhibition of LPS-induced TNFalpha level preincubated for 1 hrs followed by LPS stimulation and measured after 24 hrs by ELISA; assay type: functional, cell-based
RAW264.7 [11] = test: Antiinflammatory activity in mouse RAW264.7 cells assessed as inhibition of LPS-induced NO production for 24 hrs by Griess assay; assay type: functional, cell-based; settings: RAW264.7, 24 h
[12] = Antioxidant activity assessed as DPPH radical scavenging activity incubated for 30 mins by spectrophotometric analysis; assay type: functional
[13] = Antioxidant activity assessed as nitroblue tetrazolium superoxide radical scavenging activity incubated for 10 mins by spectrophotometric analysis; assay type: functional
RAW264.7 [14] = test: Antiinflammatory activity in mouse RAW264.7 cells assessed as inhibition of LPS-induced NO production preincubated for 1 hrs followed by LPS stimulation and measured after 24 hrs by Griess reagent based analysis; assay type: functional, cell-based
RAW264.7 [15] = test: Antiinflammatory activity in mouse RAW264.7 cells assessed as inhibition of LPS-induced NO production incubated for 20 hrs by Griess method; assay type: functional, cell-based; settings: RAW264.7, 20 h
RAW264.7 [16] = test: Antiinflammatory activity in mouse RAW264.7 cells assessed as inhibition of IFN-gamma and LPS-induced NO production incubated for 24 hrs by Griess assay; assay type: functional, cell-based; settings: RAW264.7, 24 h
RAW264.7 [17] = test: Antiinflammatory activity against mouse RAW264.7 cells assessed as inhibition of IFN-gamma and LPS-induced COX2 production preincubated for 2 hrs followed by IFN-gamma and LPS stimulation and measured after 16 hrs by spectrophotometric analysis; assay type: functional, cell-based
Mus musculus = test: Antiinflammatory activity in ICR mouse model of TPA-induced ear edema assessed as inhibition of ear inflammation at 1 mg,TOP for 30 mins followed by TPA addition and measured after 6 hrs; assay type: functional; settings: time 390 min, 6.5 h

Question: Which results are given for `COc1c2cc(c(O[C@@H]3O[C@H](CO)[C@@H](O)[C@H](O)[C@H]3O)c1OC)CCCC[C@H](O)CCc1ccc(O)c-2c1`?
Answer: Activity [1]: 41%; Activity (Rattus norvegicus): 47.1%

Question: With `COc1cc(CCC(=O)CC(=O)CCc2ccccc2)ccc1O` as the compound, how does the IC50 (Zingiber officinale) read?
Answer: 4.4 µM

Question: Which IC50 (RAW264.7 [2]) does the source give for `O=C(CCCCc1ccc(O)cc1)CCc1ccc(O)c(O)c1` here?
Answer: 13.2 µM

Question: With `O=C(CCc1ccc(O)c(O)c1)C[C@H](CCc1ccc(O)c(O)c1)O[C@H]1OC[C@H](O)[C@@H](O)[C@@H]1OC(=O)/C=C/c1ccc(O)cc1` as the compound, how does the IC50 (RAW264.7 [3]) read?
Answer: 22 µM

Question: For `COc1cc(O)c([C@@H]2C[C@H](CCc3ccc(O)cc3)O[C@@H](c3ccc(O)cc3)C2)c(O)c1C(=O)/C=C/c1ccc(O)cc1` [EPICALYXIN F], which IC50 (J774.1) is on record?
Answer: 51 µM

Question: With `COc1c2cc(c(O)c1OC)CCCC[C@@H](O)CCc1ccc(O)c-2c1` as the compound, how does the IC50 [4] read?
Answer: 22.3 µM

Question: What about the IC50 (RAW264.7 [5]) of the same compound?
Answer: 7.5 µM

Question: With `OC[C@H]1O[C@@H](O[C@H](CCCCc2ccc(O)cc2)CCc2ccc(O)c(O)c2)[C@H](O)[C@@H](O)[C@@H]1O` as the compound, how does the inhibition at 30 µM (RAW264.7 [6]) read?
Answer: 37%

Question: With `COc1cc2cc(c1O)-c1cc(ccc1O)CCC(=O)CCCC2` [MYRICANANIN C] as the compound, how does the IC50 [4] read?
Answer: 12 µM

Question: And the IC50 (RAW264.7 [5])?
Answer: 13 µM

Question: For `COc1ccc(C/C=C/CCCCc2ccc(O)c(O)c2)cc1`, which IC50 (RAW264.7 [7]) is on record?
Answer: 25.1 µM

Question: What about the IC50 [8] of the same compound?
Answer: 41.3 µM

Question: And the IC50 (RAW264.7 [9])?
Answer: 15.9 µM

Question: What about the IC50 [10] of the same compound?
Answer: 23.3 µM

Question: For `Oc1ccc(CC[C@@H](O)CCCCc2ccc(O)c(O)c2)cc1`, which IC50 (RAW264.7 [2]) is on record?
Answer: 13.8 µM

Question: Which IC50 (RAW264.7 [11]) does the source give for `Oc1ccc(CC[C@H](O)C[C@H](O)CCc2ccc(O)c(O)c2)cc1` here?
Answer: 27 µM

Question: With `COc1c2cc(c(O[C@@H]3O[C@H](CO)[C@@H](O)[C@H](O)[C@H]3O)c1OC)CCCCC(=O)CCc1ccc(O)c-2c1` as the compound, how does the Activity [1] read?
Answer: 41%

Question: And the Activity (Rattus norvegicus)?
Answer: 46.9%

Question: What does the source list for `COc1c2cc(c(OC)c1OC)-c1cc(ccc1O)CC(O)C(=O)CCCC2` (stereo not drawn)?
Answer: IC50 [12]: > 250 µM; IC50 [4]: 73.7 µM; IC50 (RAW264.7 [5]): 46.9 µM

Question: Which IC50 [12] does the source give for `Oc1ccc(CCCC[C@@H](O)CCc2ccc(O)c(O)c2)cc1O` here?
Answer: 23.3 µM

Question: And the IC50 [13]?
Answer: 11.6 µM

Question: And the IC50 (RAW264.7 [14])?
Answer: 10.2 µM

Question: And the IC50 (RAW264.7 [15])?
Answer: 5.2 µM

Question: And the IC50 (RAW264.7 [3])?
Answer: 20 µM

Question: And the IC50 (RAW264.7 [16])?
Answer: 28.4 µg/mL (≈ 85.4 µM)

Question: And the IC50 (RAW264.7 [17])?
Answer: 45.3 µg/mL (≈ 136 µM)

Question: Which ID50 (Mus musculus) does the source give for `Oc1ccc2cc1Oc1ccc(cc1)CCCC[C@@H](O)CC2` here?
Answer: 0.26 mg

Question: Which IC50 (J774.1) does the source give for `COc1cc(/C=C/C(=O)CC(=O)CCc2ccc(O)c(OC)c2)ccc1O` here?
Answer: 181 µM

Question: With `COc1cc(C(O)C(O)C(O)CC(O)C(O)Cc2ccc(O)cc2)ccc1O` (stereo not drawn) as the compound, how does the IC50 (RAW264.7 [11]) read?
Answer: 46.7 µM

Question: With `Oc1ccc(CC[C@H](O)CCCCc2ccc(O)c(O)c2)cc1` as the compound, how does the IC50 (RAW264.7 [3]) read?
Answer: 22.1 µM

Question: For `O=c1cc(-c2ccc(O)cc2)oc2cc(O)cc(O)c12` [APIGENIN], which IC50 [8] is on record?
Answer: 15 µM

Question: And the IC50 [10]?
Answer: 20 µM

Question: Which IC50 (RAW264.7 [3]) does the source give for `O=C(CCc1ccc(O)c(O)c1)C[C@H](CCc1ccc(O)c(O)c1)O[C@H]1OC[C@H](O)[C@@H](O)[C@@H]1OC(=O)c1ccccc1` here?
Answer: 15.4 µM

Question: With `OC[C@H]1O[C@@H](O[C@H](CCCCc2ccc(O)c(O)c2)CCc2ccc(O)cc2)[C@H](O)[C@@H](O)[C@@H]1O` as the compound, how does the inhibition at 30 µM (RAW264.7 [6]) read?
Answer: 11%

Question: For `N=C(NCCC[C@H](N)C(=O)O)N[N+](=O)[O-]` [NITROARGININE], which IC50 (RAW264.7 [5]) is on record?
Answer: 39.5 µM

Question: For `CCCOC(=O)c1cc(O)c(O)c(O)c1`, which Activity [1] is on record?
Answer: 97%

Question: Which IC50 (RAW264.7 [3]) does the source give for `CO[C@@H](CCc1ccc(O)cc1)CC(=O)CCc1ccc(O)cc1` here?
Answer: 15.2 µM

Question: For `Oc1ccc(CCCC[C@H](CCc2ccc(O)cc2)O[C@@H]2OC[C@@H](O)[C@H](O)[C@H]2O)cc1`, which IC50 (RAW264.7 [3]) is on record?
Answer: 63 µM

Question: With `Oc1ccc2cc1Oc1ccc(cc1)CC[C@H](O)CCCC2` [ACEROGENIN A] as the compound, how does the ID50 (Mus musculus) read?
Answer: 0.32 mg

Question: For `COc1cc([C@@H]2O[C@H]([C@@H](O)Cc3ccc(O)cc3)C[C@@H](O)[C@@H]2O)ccc1O`, which IC50 (RAW264.7 [11]) is on record?
Answer: > 100 µM
